Measured values: publication PMC12858467, “In vitro toxicokinetics and metabolic profiling of methoxycathinones and methylthiocathinones using human liver systems and hyphenated mass spectrometry” (Archives of Toxicology, 2025)
Read-outs that look alike come from different tables or passages of the source.

Columns and labels:
Type in all cases: in vitro ADME
[1] = In vitro plasma protein binding (ultrafiltration, Centrifree); settings: human, pooled human blood plasma, 30 min, 37 °C, ultrafiltration
Description: (§1) PPB was investigated according to a previous study with minor modifications (Kroesen et al. [2025]). Fresh and pooled human blood plasma (450 µL) was spiked with 50 µL of a 5 µM methanolic solution of 4MeO-NE-BP, 4MeO-αP-BP, 4MeO-αP-VP, 4MeS-NE-BP, 4MeS-αP-BP, or 4MeS-αMor-PrP. The mixture was incubated for 30 min at 37 °C and with gentle shaking at 200 rpm. […] The Centrifree devices were centrifuged for 35 min at 1600 × g to obtain 100 µL of the ultrafiltrate (UF). […] Experiments were performed in quadruplicate. Fraction unbound (fu) and PPB were determined by comparing the area ratios of the compound and trimipramine-d3 as an internal standard in the UF and GA using the following equations:1 fu=peak area ratiocompoundUF/ISUF/peak area ratiocompoundGA/ISGA 2 PPB[\%]=1-fu∗100.

[2] = system: pooled human liver S9 fraction (pHLS9) and HepaRG cells; assay: In vitro metabolism by pHLS9 and HepaRG cells (LC-HRMS/MS metabolite identification); settings: 25 µM substrate
[3] = system: plasma proteins (pooled human blood plasma); assay: In vitro plasma protein binding (ultrafiltration, Centrifree)
Description: as §1

CYP2D6 = target: T1, CYP2D6 (Homo sapiens, UniProt P10635); assay: Monooxygenases activity screening, CYP2D6; settings: 25 µM, 30 min, 37 °C
T1 construct: purchased Discovery Life Sciences (Huntsville, LA, USA); host or cells: baculovirus-infected insect cells (microsomes, Supersomes)
T1 sequence (P10635 whole entry): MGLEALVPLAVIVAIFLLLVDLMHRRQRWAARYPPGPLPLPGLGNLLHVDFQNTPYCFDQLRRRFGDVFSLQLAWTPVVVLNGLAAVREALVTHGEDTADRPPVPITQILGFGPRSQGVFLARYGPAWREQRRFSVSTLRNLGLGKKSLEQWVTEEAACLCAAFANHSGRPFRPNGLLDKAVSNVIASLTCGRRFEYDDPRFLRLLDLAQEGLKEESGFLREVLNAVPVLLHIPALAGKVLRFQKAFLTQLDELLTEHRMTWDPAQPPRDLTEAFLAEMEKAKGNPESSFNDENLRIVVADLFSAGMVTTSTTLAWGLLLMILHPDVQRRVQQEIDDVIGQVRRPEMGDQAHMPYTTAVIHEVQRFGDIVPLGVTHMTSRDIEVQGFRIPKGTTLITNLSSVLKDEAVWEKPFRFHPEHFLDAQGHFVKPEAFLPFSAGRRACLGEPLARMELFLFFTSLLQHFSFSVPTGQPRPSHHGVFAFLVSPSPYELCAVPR
Description: For incubations with CYP2A6 or CYP2C9, phosphate buffer was replaced with 90 mM Tris buffer, according to the manufacturer’s guideline. […] All incubations were done in duplicate and concentrations were fixed. Verapamil (25 µM) was incubated as a positive control.

[4] = read-out: fu (unbound fraction)

Structure (SMILES) | fraction unbound at 30 min, 0.5 µM ([1]; read-out: PPB, % (converted)) | fraction unbound at 30 min, 0.5 µM [1, 4] | metabolic reactions (metabolite IDs) identified [2] | number of metabolites tentatively identified [2] | Plasma protein binding, class in words [3] | PPB, % ([3]; 30 min, 37 °C, ultrafiltration) | S-demethylation, only mediated by one CYP isoform (CYP2D6)
CSc1ccc(C(=O)C(C)N2CCOCC2)cc1 (stereo not drawn) [4MeS-αMor-PrP, 4’-methylthio-2-morpholinopropiophenone] | 0.14 | 0.14 | S-demethylation (MT3.1), hydroxylation (MT3.2), N-oxidation (MT3.3), oxo reduction (MT3.4), lactam formation (MT3.6), N,O-bis-dealkylation (MT3.7), dehydrogenation (MT3.9), and combinations thereof | 10 |  |  | 
CCNC(CC)C(=O)c1ccc(OC)cc1 (stereo not drawn) [Compound 4MeO-NE-BP, 4’-methoxy-N-ethylbutyrophenone] | > 0.5 | 0.61 | O-demethylation (MO1.1), hydroxylation (MO1.2), N-dealkylation (MO1.3), hydroxylamine formation (MO1.4), and O-demethylation + sulfation (MO1.5) | 5 | low | 39% | 
CCNC(CC)C(=O)c1ccc(SC)cc1 (stereo not drawn) [Compound 4MeS-NE-BP, 4’-methylthio-N-ethylbutyrophenone] | 0.13 | 0.13 | S-demethylation (MT1.1), hydroxylation (MT1.2), N-dealkylation (MT1.3), hydroxylamine formation (MT1.4), hydroxylation + oxidation (MT1.5), N-dealkylation + S-demethylation (MT1.6), and hydroxylamine formation + hydroxylation (MT1.7) | 7 |  |  | CYP2D6
